Measurements published in ChEMBL document CHEMBL3822434 (Bioorg Med Chem, 2016).
Values after ≈ are worked out from the molar mass of the structure shown.

Legend:
[1] = Intrinsic clearance in human liver microsomes at 1 uM after 30 mins in presence of NADPH by LC-MS/MS analysis; type: ADME; details: read-out: CLH
[2] = Solubility in fasted state simulated intestinal fluid irradiated ultrasonically for 10 mins followed by incubation for 24 hrs by HPLC-UV analysis; type: ADME
[3] = Solubility in 50 mM phosphate buffer at pH 6.5 irradiated ultrasonically for 10 mins followed by incubation for 24 hrs by HPLC-UV analysis; type: physicochemical
Liver cytosol [4] = test: Drug metabolism in human liver cytosol at 1 uM assessed as N-(2-Methoxy-4-((3-(4-methylpiperazin-1-yl)propyl)carbamoyl)phenyl)-4-oxo-3,4-dihydrothieno[3,2-d]pyrimidine-7-carboxamide formation after 30 mins in presence of NADPH by LC-MS/MS analysis; type: ADME; details: 0.5 h
[5] = Intrinsic clearance in mouse liver microsomes at 1 uM after 30 mins in presence of NADPH by LC-MS/MS analysis; type: ADME; details: read-out: CLH
[6] = Drug metabolism in mouse liver cytosol at 1 uM assessed as N-(2-Methoxy-4-((3-(4-methylpiperazin-1-yl)propyl)carbamoyl)phenyl)-4-oxo-3,4-dihydrothieno[3,2-d]pyrimidine-7-carboxamide formation after 30 mins in presence of NADPH by LC-MS/MS analysis; type: ADME; details: 0.5 h
[7] = target: T1, Mitogen-activated protein kinase kinase kinase 7 (Homo sapiens, UniProt O43318); test: Inhibition of recombinant TAK1 (unknown origin)
T1 sequence (O43318 whole entry): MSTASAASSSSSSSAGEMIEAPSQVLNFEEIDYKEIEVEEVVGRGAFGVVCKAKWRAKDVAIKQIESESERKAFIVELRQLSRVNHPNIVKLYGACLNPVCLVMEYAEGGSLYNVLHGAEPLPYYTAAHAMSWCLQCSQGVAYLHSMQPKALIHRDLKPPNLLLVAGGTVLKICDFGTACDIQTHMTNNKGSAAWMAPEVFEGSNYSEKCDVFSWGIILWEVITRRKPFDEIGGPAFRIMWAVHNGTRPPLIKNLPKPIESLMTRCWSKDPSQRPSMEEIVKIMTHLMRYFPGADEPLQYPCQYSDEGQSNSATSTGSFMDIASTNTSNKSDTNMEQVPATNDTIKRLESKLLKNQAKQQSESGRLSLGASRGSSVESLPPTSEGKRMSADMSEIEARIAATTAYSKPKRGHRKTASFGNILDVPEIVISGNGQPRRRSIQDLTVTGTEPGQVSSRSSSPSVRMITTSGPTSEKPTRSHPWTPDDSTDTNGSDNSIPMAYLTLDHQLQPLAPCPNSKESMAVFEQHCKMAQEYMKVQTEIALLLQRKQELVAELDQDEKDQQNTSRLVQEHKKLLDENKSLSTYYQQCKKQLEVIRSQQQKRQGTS

[8] = target: T1, Mitogen-activated protein kinase kinase kinase 7; test: Inhibition of recombinant FLAG-tagged TAK1 kinase domain (unknown origin) expressed in baculovirus expression system coexpressing TAB using biotin-labeled MKK6kd substrate incubated for 1 hr by AlphaScreen assay
Liver cytosol [9] = test: Drug level in human liver cytosol treated with N-(2-Methoxy-4-((3-(4-methylpiperazin-1-yl)propyl)carbamoyl)phenyl)thieno[3,2-d]pyrimidine-7-carboxamide after 30 mins in presence of NADPH by LC-MS/MS analysis; type: ADME, tissue-based; details: 0.5 h
[10] = Drug level in mouse liver cytosol treated with N-(2-Methoxy-4-((3-(4-methylpiperazin-1-yl)propyl)carbamoyl)phenyl)thieno[3,2-d]pyrimidine-7-carboxamide after 30 mins in presence of NADPH by LC-MS/MS analysis; type: ADME, tissue-based; details: 0.5 h
[11] = Apparent permeability in human Caco2 cells; type: ADME, cell-based; details: Caco-2
[12] = target: T1, Mitogen-activated protein kinase kinase kinase 7; test: Inhibition of human recombinant TAK1 fused with TAB1 using MKK6 as substrate in presence of gamma-[33P]ATP
[13] = target: T1, Mitogen-activated protein kinase kinase kinase 7; test: Inhibition of TAK1 (unknown origin)

microsomal CLint at 1 µM [1] [µL/min/mg]	solubility at 24 h [2] [µg/mL]	solubility at 24 h [3] [µg/mL]	Compound	also measured
11	351 (≈ 915 µM)	353 (≈ 921 µM)	COc1cc(N2CCN(C)CC2)ccc1NC(=O)c1csc2cncnc12	–
26	312 (≈ 758 µM)	293 (≈ 712 µM)	COc1cc(C(=O)N2CCN(C)CC2)ccc1NC(=O)c1csc2cncnc12	–
21	420 (≈ 896 µM)	377 (≈ 805 µM)	COc1cc(C(=O)NCCCN2CCN(C)CC2)ccc1NC(=O)c1csc2cncnc12	Drug metabolism (Liver cytosol [4]): metabolite_detected; microsomal CLint at 1 µM [5]: 80 µL/min/mg; Drug metabolism [6]: metabolite_detected
–	–	–	Cc1cc(NC(=O)Nc2cc(C(C)(C)C)nn2-c2cccc(C#N)c2)ccc1Oc1ccncc1	IC50 [7]: 156 nM
–	< 3	< 3	COc1cc2ncccc2cc1NC(=O)c1csc2cncnc12	–
–	–	–	CCc1cc(Nc2ncc(F)c(-c3cnc4cccnn34)n2)cc(OCCN2CCC(O)CC2)c1	IC50 [8]: 8 nM
–	–	–	COc1cc(C(=O)NCCCN2CCN(C)CC2)ccc1NC(=O)c1csc2c(=O)[nH]cnc12	Drug metabolism (Liver cytosol [9]): metabolite_detected; Drug metabolism [10]: metabolite_detected
–	–	–	CC(C)Oc1c(NC(=O)c2csc3c(=O)[nH]cnc23)cccc1C(=O)N1CCN(C)CC1	Papp [11]: < 1 ×10⁻⁶ cm/s
–	–	–	C[C@H]1OC2C3=C(C(=O)[C@@H]4O[C@@H]4[C@H]3O)C1[C@@H]1[C@@H](C)OC=C3[C@H](O)[C@H]4O[C@H]4C(=O)[C@@]321 (stereo partly specified)	IC50 [12]: 20000 nM
–	–	–	COCCN1CCN(Cc2ccc(-c3cc(NC(N)=O)c(C(N)=O)s3)cc2)CC1	IC50 [13]: 50 nM
